Key:
[1] = system: Vascular endothelial cells (GM07373A); experiment: Fluorescent intensity of vascular endothelial cells injured by hydrogen peroxide plus glucose, 24-wells plate, graphic analysis software method; format: cell-based, cattle; settings: for Fluorescent intensity compared with the hydrogen peroxide plus glucose added system: sample further added to hydrogen peroxide plus glucose
Description: Vascular endothelial cells (GM07373A) subcultured with 10% FBS added EMEM were separated with a trypsin-EDTA solution. To 1.5 ml of the solution of the cells floated on 10% FBS added EMEM was added 9 ml of 10% FBS added EMEM and the resultant mixture was placed in a laboratory dish having a diameter of 9 cm and pre-cultivation was conducted at 37° C. for 3-4 days under an atmosphere of 5% carbon dioxide. Vascular endothelial cells in the culture broth were separated with a trypsin-EDTA solution and floated on 10% FBS added EMEM. 1 ml of the floated cell solution (number of cell: 0.7-0.9×10^5 cell/ml) was poured into each well of 24-wells plate and the main cultivation was conducted at 37° C. for 2 days under an atmosphere of 5% carbon dioxide. After removal of the culture medium, 0.4% FBS added EMEM was added in an amount of 500 μl per well to make the cells in starved state and cultivation was conducted at 37° C. over a night under an atmosphere of 5% carbon dioxide. A sample solution and 10 μl of an aqueous glucose solution (200 mg/ml) were added and cultivation was conducted at 37° C. for 2 hours under an atmosphere of 5% carbon dioxide. After removal of the culture medium, A Hanks' solution (a product of Nihon Pharmaceutical Co., Ltd.) was added to the wells in the amount of 1 ml per well for twice washing. After removal of the solution, a dye solution containing hydrogen peroxide (or a dye solution not containing hydrogen peroxide) was added in the amount of 300 μl per well and cultivation was conducted at 37° C. for 30 minutes under an atmosphere of 5% carbon dioxide. The dye solution was removed to measure the fluorescent intensity of the cell.
GM07373A is a cattle's aortic vascular endothelial cell strain, “Repository No. GM07373A” purchased from Coriel Human Genetic Cell Repository in U.S.A. The dye solution containing hydrogen peroxide was prepared by mixing 50 μg of the solution of fluorescent pigment (“C-6827”, a product of Molecular Probe Company) dissolved in 90 μl of DMSO with 9 ml of the Hanks' solution and adding 90 μl of 0.3% hydrogen peroxide thereto. Hydrogen peroxide was not added for the control test.
As a sample solution, there were used methanol solutions of astaxanthin (a product of Sigma Company) in 0.053 mg/ml and 0.0053 mg/ml, methanol solutions of α-tocopherol (a product of Wako Pure Chemical Industries, Ltd.) in 0.25 mg/ml and 0.025 mg/ml and methanol solutions of tocotrienol (a product of Sigma Company) in 0.25 mg/ml and 0.025 mg/ml. 10 μl of each of the sample solution was added to 500 μl of the culture medium.
The fluorescent intensity was measured at the optional three places under 100 times magnifications using a Leica stereoscopic fluorescence microscope “MZ FL III” (having a Leica macro fluorescence apparatus having a “GFP” attachment) and a filter set (name): GEP Plant fluorescence (GFP2) (excitation filter: 480/40 nm, absorption filter: 510 nm). Each of the pictures was captured by a CDD camera and converted into gray intensity % to measure the fluorescent intensity. The fluorescent intensity was measured for three places per well and the average value was calculated. Also, 3-4 wells were prepared for each kind of sample.
The system where astaxanthin has added is one where astaxanthin in addition to hydrogen peroxide plus glucose was added. The period of time for pre-cultivation was […] and the number of cells was 0.84×10^5 cell per well.
The tocotrienol or α-tocopherol added system is one where tocotrienol or α-tocopherol in addition to hydrogen peroxide plus glucose was added. The period of time for pre-cultivation was 3 days and the number of cells was 0.89×10^5 cell per well.

[2] = cited from earlier work
[3] = specimen 0.5 μg/ml added in addition to hydrogen peroxide plus glucose
[4] = specimen 5.0 μg/ml added in addition to hydrogen peroxide plus glucose

Cc1c(C)c2c(c(C)c1O)CC[C@@](C)(CCC[C@H](C)CCC[C@H](C)CCCC(C)C)O2 [α-Tocopherol, α-tocopherol]
Fluorescent intensity compared with the hydrogen peroxide plus glucose added system [1]: less fluorescent intensity than the hydrogen peroxide plus glucose added system | Fluorescent intensity (%) [1, 3]: 4.74% | Fluorescent intensity (%) [1, 4]: 4.32%

tocotrienol [Tocotorienol]
Fluorescent intensity compared with the hydrogen peroxide plus glucose added system [1]: less fluorescent intensity than the hydrogen peroxide plus glucose added system | Fluorescent intensity (%) [1, 3]: 4.35% | Fluorescent intensity (%) [1, 4]: 4.40% | Antioxidative action, times as strong as tocopherol ([2]; relative to tocopherol): about 50 times

CC1=C(/C=C/C(C)=C/C=C/C(C)=C/C=C/C=C(C)/C=C/C=C(C)/C=C/C2=C(C)C(=O)C(O)CC2(C)C)C(C)(C)CC(O)C1=O (stereo not drawn) [Astaxanthin, 3,3′-dihydroxy-β,β-carotene-4,4′-dione]
Fluorescent intensity (%) ([1]; astaxanthin 0.104 μg/ml added in addition to hydrogen peroxide plus glucose): 2.55% | Fluorescent intensity (%) ([1]; astaxanthin 1.04 μg/ml added in addition to hydrogen peroxide plus glucose): 1.93% | Fluorescent intensity compared with the hydrogen peroxide plus glucose added system [1]: less fluorescent intensity than the hydrogen peroxide plus glucose added system | Antioxidative action, times as strong as vitamin E ([2]; relative to vitamin E): about 1000 times | Antioxidative action, times as strong as β-carotene ([2]; relative to β-carotene): about 40 times

Source: patent US20120004297A1, “Agent for alleviating vascular failure” (Naoki HIGASHI, priority 2005, published 2012)
